Test results from patent publication US20250135002A1, “COMPOSITIONS FOR AND METHOD OF EFFECTING TUMOR CELL DEATH” (Duke University, priority 2022, published 2025).
Read-outs that look alike come from different tables or passages of the source.

System: c1498 murine AML (Acute Myeloid Leukemia) cells
Experiment: Survival of FACS-sorted phosphatidylserine-positive AML cells after cytarabine treatment
Format: cell-based
Conditions: Mus musculus, 1 μM cytarabine for 24 hrs, live cell number estimated from growth rates
Text: FIG. 1A-FIG. 1C show the survival of phosphatidylserine-expressing AML cells. […] The rectangles indicate the sorted cells. […] About 1000 each of the sorted cells were placed into multi-well plates. When the cells reached sufficient numbers, they were counted at different time points to measure their growth rates. The growth rates were then used to estimate the initial live cell numbers. The following formula was used to calculate the minimal initial live cell numbers: Minimal initial cell number=Total cell population/[…] (days to reach the current cell number).
To determine whether cells expressing high-level of PS expression on the cell surface were destined to die, the viability of c1498 murine AML (Acute Myeloid Leukemia) cells treated with cytarabine (part of a classical chemotherapy regimen for human AML) was examined.
Specifically, whether PS-expressing acute myelocytic leukemia (AML) cells survived was examined. FACS was used to identify and sort c1498 cells treated with 1 μM cytarabine (for 24 hrs) and with high PS-expression. The sorted cells were then seeded into 6-well dishes and the ability to survive and proliferate was measured. FIG. 1A-FIG. 1B). […]

Compound: Nc1ccn([C@@H]2O[C@H](CO)[C@@H](O)[C@@H]2O)c(=O)n1 [cytarabine]
- viability at 1 µM (FACS-sorted PS+7AAD+ (late apoptotic) cells, read-out: proportion of cytarabine-treated PS+7AAD+ c1498 cells that remained viable and could proliferate): ~8%
- viability at 1 µM (FACS-sorted PS+7AAD- (early apoptotic) cells, read-out: proportion of cytarabine-treated PS+7AAD- c1498 cells that remained viable and could proliferate): ~25%
